Laboratory results as given in the METLIN SMRT retention time set (Domingo-Almenara et al. 2019).

Test: gradient 5% acetonitrile 3 min, to 50% in 2 min, to 85% in 15 min, held 3 min, 100 µL/min
Details: column: Zorbax Extend-C18 2.1 x 50 mm; eluents: water / acetonitrile, 0.1% formic acid
Outline: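 Over 3 months, pure standards in mixtures of ~100 molecules were run by HPLC coupled to a quadrupole time-of-flight mass spectrometer in positive and negative ionization mode. The column was a Zorbax Extend-C18 (2.1 × 50 mm, 1.8 μm) at 100 μL/min, eluted with water and acetonitrile each holding 0.1% formic acid, with 40 μL dead and 900 μL dwell volumes. Retention time was determined from adduct peaks chosen by software and checked manually.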

SMILES	RP-LC retention time [s]
O=C(Nc1ccccc1)c1csc(-c2ccc(N3CCCC3)nc2)n1	728
c1ccc(-c2nc(-c3cn(-c4ccccc4)nn3)no2)cc1	1020
O=C(Cn1c(=O)n(C2CCCCC2)c2ncccc21)NCc1cccnc1	603
Cc1cc(N2CCN(C)CC2)nc2ccc(NC(=S)N3CCN(c4ccc(F)cc4)CC3)cc12	606
COc1ccc2c(c1)C1(CCN(S(=O)(=O)c3ccc(F)c(C)c3)C1)C(=O)N2 (configuration not stated)	874
CCCN1C(=O)C(CC(=O)NC2CCCC2)Sc2ncccc21 (configuration not stated)	741
COCc1c(C(=O)O)nnn1-c1ccc(OC)c(Cl)c1	706
O=C(CN1C(=O)CCCc2cc(S(=O)(=O)N3CCCCC3)ccc21)NCc1ccccc1Cl	909
CCN1C(=O)COc2ccc(-c3noc(COc4ccc(OC)cc4)n3)cc21	1000
O=S(=O)(Nc1ccc(Cn2cncn2)cc1)c1ccccc1F	688
COc1cc(C(=O)Nc2ccc(-c3cn4cccnc4n3)cc2)cc(OC)c1OC	634
COc1cc([C@@H]2c3cc4c(c(O)c3C[C@H]3COC(=O)[C@@H]32)OCO4)cc(OC)c1OC	620
CC(=O)N1CCN(c2nc3c(s2)CC(C(=O)NCc2ccc(F)cc2F)CC3)CC1 (configuration not stated)	544
CC1CCCCN1CCNC(=O)CN1CCN(C(=O)Nc2ccc(Br)cc2)CC1=O (configuration not stated)	610
CC(C)n1cnc(S(=O)(=O)N2CCCC(C(=O)N3CCN(c4ccccn4)CC3)C2)c1 (configuration not stated)	581
Nc1nc(-c2ccc(O)cc2)cs1	547
O=C(Nc1ccc2c(c1)CCCN2C(=O)c1ccco1)c1ccccc1C(F)(F)F	792

More lines, now with the values ahead:

RP-LC retention time [s]	SMILES
718	CCCNc1cc(N2CCC(CCC(=O)NCc3cccc(Cl)c3)CC2)ncn1
648	COC(=O)C1=C(N)C(=O)N(CCc2ccc(OC)c(OC)c2)C1
1160	COc1ccccc1-c1csc(-c2nnn(-c3ccc(C)cc3)c2N)n1
739	COc1ccc(C(=O)N2CCN(c3cc(-c4cccs4)[nH]n3)CC2)c(OC)c1
977	Cc1ccc(CN(C(=O)C(C)Oc2cccc(C)c2C)C2CCS(=O)(=O)C2)o1 (configuration not stated)
1050	CCn1c(C(=O)N2CCN(c3cccc(C)c3)C(C)C2)cc2sccc21 (configuration not stated)
950	COc1ccc(CCS(=O)(=O)NCC2(c3ccc(F)cc3)CC2)cc1
718	Cc1c(F)cccc1NC(=O)Nc1ccc2nnc(C)n2c1
638	Cc1ccc2c(=O)c3c([nH]c2c1C)CCN(CC(=O)Nc1cc(F)ccc1F)C3
919	Cc1ccccc1-c1nnc(CSc2nnc(NC(=O)c3ccc(Br)o3)s2)o1
622	COc1cccc(CN2CCn3c(nnc3[C@@H]3C[C@@H](O)CN3Cc3ccccc3)C2)c1
714	COc1cccc(-c2cc3n(n2)CCCN(C(=O)c2ccsc2)C3)c1
612	Cc1cc(C)cc(S(=O)(=O)Nc2ccc3nc(N4CCN(C)CC4)cc(C(=O)O)c3c2)c1
777	O=C(NCc1ccccc1OC(F)(F)F)c1ccc(N2CCOCC2)nn1
603	Cc1cccc(CN2CCC(CNC(=O)Nc3cn(C)c(=O)c4ccccc34)CC2)c1
599	COc1ccccc1OC(C)C(=O)N1CCN(c2cc(C)n3cnnc3n2)CC1 (configuration not stated)
642	O=C(Cn1nc2n(c1=O)CCCC2)NCc1ccc(F)cc1
662	O=C(Cn1nc2n(c1=O)CCCC2)Nc1cccc(Cl)c1
689	CC(C)NC(=O)C1CCCN(c2nc3ncn(CC(=O)NCc4ccc(F)cc4)c(=O)c3s2)C1 (configuration not stated)
1350	CCCN(C(=O)c1cccc(OC)c1)c1nc(-c2ccccc2)cs1
